Experimental data as given in publication PMC8865125, “Isocoumarins: a new class of selective carbonic anhydrase IX and XII inhibitors” (Journal of Enzyme Inhibition and Medicinal Chemistry, 2022).
Like-named read-outs stand apart in the source and are kept apart here.

Columns and labels:
Experiment in all cases: stopped-flow CO2 hydrase assay
Format in all cases: biochemical
hCA II = biological target: T1, hCA II (Homo sapiens, UniProt P00918); conditions: read-out: KI (μM)^a^,b / hCA I
T1 construct: gene CA2; recombinant

hCA I = biological target: T2, hCA I (Homo sapiens, UniProt P00915); conditions: read-out: KI (μM)^a^,b / hCA I
T2 construct: gene CA1; recombinant
Text: stopped-flow CO2 hydrase assay on hCA I

hCA IX [1] = biological target: T3, hCA IX (Homo sapiens, UniProt Q16790); conditions: read-out: KI (μM)^a^,b / hCA IX
T3 construct: gene CA9; recombinant
Text: stopped-flow CO2 hydrase assay on hCA IX

hCA XII [2] = biological target: T4, hCA XII (Homo sapiens, UniProt O43570); conditions: read-out: KI (μM)^a^,b / hCA XII
T4 construct: gene CA12; recombinant
Text: stopped-flow CO2 hydrase assay on hCA XII

hCA IX [3] = biological target: T3, hCA IX; conditions: read-out: KI (μM)^a^,b / hCA I
hCA XII [4] = biological target: T4, hCA XII; conditions: read-out: KI (μM)^a^,b / hCA I

T2 sequence (P00915 2-261): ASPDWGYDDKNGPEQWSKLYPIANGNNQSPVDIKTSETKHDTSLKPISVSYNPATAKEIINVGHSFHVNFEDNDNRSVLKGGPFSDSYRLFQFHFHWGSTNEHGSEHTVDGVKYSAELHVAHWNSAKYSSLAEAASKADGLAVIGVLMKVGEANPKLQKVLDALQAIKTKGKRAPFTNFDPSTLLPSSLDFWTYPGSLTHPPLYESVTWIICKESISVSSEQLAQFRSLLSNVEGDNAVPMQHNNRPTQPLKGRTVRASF
T4 sequence (O43570 25-354 limits assumed): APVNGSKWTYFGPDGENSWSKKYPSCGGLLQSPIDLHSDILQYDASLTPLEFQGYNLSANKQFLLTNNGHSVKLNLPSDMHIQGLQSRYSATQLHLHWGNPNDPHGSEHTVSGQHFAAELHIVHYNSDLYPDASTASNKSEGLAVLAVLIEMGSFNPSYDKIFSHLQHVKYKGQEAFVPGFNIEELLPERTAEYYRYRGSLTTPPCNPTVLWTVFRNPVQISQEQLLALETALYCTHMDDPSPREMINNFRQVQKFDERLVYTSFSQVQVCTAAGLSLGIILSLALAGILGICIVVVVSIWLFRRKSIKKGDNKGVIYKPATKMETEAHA

SMILES	Ki (hCA II) [µM]	Ki (hCA I) [µM]	Ki (hCA IX [1]) [µM]	Ki (hCA XII [2]) [µM]	Ki (hCA IX [3]) [µM]	Ki (hCA XII [4]) [µM]
CC(=NNc1ccccc1)c1cc2ccccc2c(=O)o1 [X1, 3–(1-(2-phenylhydrazono)ethyl)-1H-isochromen-1-one]	> 100	> 100	4.3	1.9		
CC(=NNc1ccc(Cl)cc1)c1cc2ccccc2c(=O)o1 [X2, 3–(1-(2–(4-chlorophenyl) hydrazono)ethyl)-1H-isochromen-1-one]	> 100	> 100	3.5	4.6		
CC(=NNc1ccc(C#N)cc1)c1cc2ccccc2c(=O)o1 [X3, 4–(2-(1–(1-oxo-1H-isochromen-3-yl)ethylidene)hydrazinyl) benzonitrile]	> 100	> 100		1.2		
CC(=NNc1ccccc1)c1oc(=O)c2ccccc2c1C [X4, 4-methyl-3–(1-(2-phenylhydrazono)ethyl)-1H-isochromen-1-one]	> 100	> 100	3.9	2.3		
CC(=NNc1ccc(Cl)cc1)c1oc(=O)c2ccccc2c1C [X5, 3–(1-(2–(4-chlorophenyl) hydrazono)ethyl)-4-methyl-1H-isochromen-1-one]	> 100	> 100	2.7	5.8		
O=Cc1cn(-c2ccccc2)nc1-c1cc2ccccc2c(=O)o1 [X6, 3–(1-oxo-1H-isochromen-3-yl)-1-phenyl-1H-pyrazole-4-carbaldehyde]	> 100	> 100	7.1	6.5		
O=Cc1cn(-c2ccc(Cl)cc2)nc1-c1cc2ccccc2c(=O)o1 [X7, 1–(4-chlorophenyl)-3–(1-oxo-1H-isochromen-3-yl)-1H-pyrazole-4-carbaldehyde]	> 100	> 100	6.2	11.6		
N#Cc1ccc(-n2cc(C=O)c(-c3cc4ccccc4c(=O)o3)n2)cc1 [X8, 4–(4-formyl-3–(1-oxo-1H-isochromen-3-yl)-1H-pyrazol-1-yl) benzonitrile]	> 100	> 100	8	8.3		
Cc1c(-c2nn(-c3ccccc3)cc2C=O)oc(=O)c2ccccc12 [X9, 3–(4-methyl-1-oxo-1H-isochromen-3-yl)-1-phenyl-1H-pyrazole-4-carbaldehyde]	> 100	> 100	8.9	8.1		
Cc1c(-c2nn(-c3ccc(Cl)cc3)cc2C=O)oc(=O)c2ccccc12 [X10, 1–(4-chlorophenyl)-3–(4-methyl-1-oxo-1H-isochromen-3-yl)-1H-pyrazole-4-carbaldehyde]	> 100	> 100	8.1	13.4		
O=C1NC(=O)C(=Cc2cn(-c3ccccc3)nc2-c2cc3ccccc3c(=O)o2)C(=O)N1 [X11, 5-((3–(1-oxo-1H-isochromen-3-yl)-1-phenyl-1H-pyrazol-4-yl)methylene) pyrimidine-2,4,6(1H,3H,5H)-trione]	> 100	> 100	46.2	41.7		
O=C1NC(=O)C(=Cc2cn(-c3ccc(Cl)cc3)nc2-c2cc3ccccc3c(=O)o2)C(=O)N1 [X12, 5-((1–(4-chlorophenyl)-3–(1-oxo-1H-isochromen-3-yl)-1H-pyrazol-4-yl)methylene) pyrimidine-2,4,6(1H,3H,5H)-trione]	> 100	> 100			> 100	> 100
N#Cc1ccc(-n2cc(C=C3C(=O)NC(=O)NC3=O)c(-c3cc4ccccc4c(=O)o3)n2)cc1 [X13, 4–(3-(1-oxo-1H-isochromen-3-yl)-4-((2,4,6-trioxotetrahydropyrimidin-5(2H)-ylidene)methyl)-1H-pyrazol-1-yl) benzonitrile]	> 100	> 100	62.4	36.2		
Cc1c(-c2nn(-c3ccccc3)cc2C=C2C(=O)NC(=O)NC2=O)oc(=O)c2ccccc12 [X14, 5-((3–(4-methyl-1-oxo-1H-isochromen-3-yl)-1-phenyl-1H-pyrazol-4-yl)methylene) pyrimidine-2,4,6(1H,3H,5H)-trione]	> 100	> 100	54.6	66.5		
Cc1c(-c2nn(-c3ccc(Cl)cc3)cc2C=C2C(=O)NC(=O)NC2=O)oc(=O)c2ccccc12 [X15, 5-((1–(4-chlorophenyl)-3–(4-methyl-1-oxo-1H-isochromen-3-yl)-1H-pyrazol-4-yl)methylene) pyrimidine-2,4,6(1H,3H,5H)-trione]	> 100	> 100			> 100	> 100
O=C1NC(=S)NC(=O)C1=Cc1cn(-c2ccccc2)nc1-c1cc2ccccc2c(=O)o1 [X16, 5-((3–(1-oxo-1H-isochromen-3-yl)-1-phenyl-1H-pyrazol-4-yl)methylene)-2-thioxodihydropyrimidine-4,6(1H,5H)-dione]	> 100	> 100	49.7	47.1		
O=C1NC(=S)NC(=O)C1=Cc1cn(-c2ccc(Cl)cc2)nc1-c1cc2ccccc2c(=O)o1 [X17, 5-((1–(4-chlorophenyl)-3–(1-oxo-1H-isochromen-3-yl)-1H-pyrazol-4-yl)methylene)-2-thioxodihydropyrimidine-4,6(1H,5H)-dione]	> 100	> 100			> 100	> 100
N#Cc1ccc(-n2cc(C=C3C(=O)NC(=S)NC3=O)c(-c3cc4ccccc4c(=O)o3)n2)cc1 [X18, 4–(4-((4,6-dioxo-2-thioxotetrahydropyrimidin-5(2H)-ylidene)methyl)-3–(1-oxo-1H-isochromen-3-yl)-1H-pyrazol-1-yl) benzonitrile]	> 100	> 100	78.9	53.4		
Cc1c(-c2nn(-c3ccccc3)cc2C=C2C(=O)NC(=S)NC2=O)oc(=O)c2ccccc12 [X19, 5-((3–(4-methyl-1-oxo-1H-isochromen-3-yl)-1-phenyl-1H-pyrazol-4-yl)methylene)-2-thioxodihydropyrimidine-4,6(1H,5H)-dione]	> 100	> 100	72.3	62.8		
Cc1c(-c2nn(-c3ccc(Cl)cc3)cc2C=C2C(=O)NC(=S)NC2=O)oc(=O)c2ccccc12 [X20, 5-((1–(4-chlorophenyl)-3–(4-methyl-1-oxo-1H-isochromen-3-yl)-1H-pyrazol-4-yl)methylene)-2-thioxodihydropyrimidine-4,6(1H,5H)-dione]	> 100	> 100			> 100	> 100
